EC50 and Emax data for 22 compounds are collected here from patent US20220306617A1, “SUBSTITUTED 1,3-PHENYL HETEROARYL DERIVATIVES AND THEIR USE IN THE TREATMENT OF DISEASE” (NOVARTIS AG, priority 2019, published 2022).

Structures can show the parent of a compound that is named as a salt.

This experiment addresses T1, abc isoform of human TMEM16A channel expressed in CHO cells (Homo sapiens, UniProt Q5XXA6, DEL476-501).
T1 construct: expressed in transfected cells; host or cells: CHO cells, doxycycline-inducible expression under Blasticidin/Zeocin selection
T1 sequence (Q5XXA6 with tags, fused parts or gaps isoform Q5XXA6-5 DEL539-564): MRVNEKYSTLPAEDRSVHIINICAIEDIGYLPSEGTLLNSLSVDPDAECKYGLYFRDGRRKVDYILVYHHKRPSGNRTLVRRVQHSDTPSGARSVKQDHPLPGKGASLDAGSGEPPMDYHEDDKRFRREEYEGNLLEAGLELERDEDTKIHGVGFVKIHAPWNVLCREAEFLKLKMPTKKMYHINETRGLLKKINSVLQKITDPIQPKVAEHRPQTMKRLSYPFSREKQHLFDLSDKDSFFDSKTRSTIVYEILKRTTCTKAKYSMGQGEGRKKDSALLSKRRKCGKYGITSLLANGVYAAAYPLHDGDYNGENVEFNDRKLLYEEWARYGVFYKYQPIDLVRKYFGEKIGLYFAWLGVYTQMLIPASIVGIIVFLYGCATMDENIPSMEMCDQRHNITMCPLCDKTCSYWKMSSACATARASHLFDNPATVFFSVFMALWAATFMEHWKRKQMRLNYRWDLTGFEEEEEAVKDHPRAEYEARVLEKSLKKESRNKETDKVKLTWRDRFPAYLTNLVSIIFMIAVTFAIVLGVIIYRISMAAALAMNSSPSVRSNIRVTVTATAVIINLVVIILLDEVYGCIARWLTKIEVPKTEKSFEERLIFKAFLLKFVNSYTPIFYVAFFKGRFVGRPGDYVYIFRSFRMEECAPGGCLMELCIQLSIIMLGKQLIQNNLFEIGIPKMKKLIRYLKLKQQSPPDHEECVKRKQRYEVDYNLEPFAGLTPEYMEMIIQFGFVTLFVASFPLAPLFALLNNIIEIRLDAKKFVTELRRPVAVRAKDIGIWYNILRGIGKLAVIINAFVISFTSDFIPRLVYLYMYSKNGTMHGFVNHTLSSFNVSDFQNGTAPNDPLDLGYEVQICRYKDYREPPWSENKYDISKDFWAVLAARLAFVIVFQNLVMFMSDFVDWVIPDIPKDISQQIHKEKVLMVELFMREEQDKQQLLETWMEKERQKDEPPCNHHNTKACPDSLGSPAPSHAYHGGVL
Briefly: Automated patch clamping (QPatch) assay to measure TMEM16A activity in whole-cell. The format is cell-based. Conditions: for EC50: CHO cells expressing human TMEM16A (abc), whole-cell automated patch clamp, Hill fit, read-out: TMEM16A QPATCH assay EC50 V3 EC50; for Emax: CHO, maximum current at highest dose relative to reference potentiator at maximal concentration (upper limit) and vehicle (lower limit), read-out: TMEM16A QPATCH assay EC50 V3 Assay Window (% TMEM16A max activation). Put shortly: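 Whole-cell currents were recorded by planar automated patch clamp from induced CHO cells (doxycycline 1 μg/mL, 18-24 h), using a −70 mV hold, +70 mV step and −90 to +70 mV ramp. Values: Hill-fitted EC50, and activation scaled between vehicle current and reference-potentiator maximum; 0.3% DMSO final.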

What is called EC50 is the concentration needed to bring the measured effect to its halfway point. In the case of `CCC(CC)NC(=O)c1cnc(-c2cccc(-c3cc(C(=O)N4CCCCC4)n[nH]3)c2)o1` [Example 3.33, N-(Pentan-3-Yl)-2-(3-(3-(Piperidine-1-Carbonyl)-1H-Pyrazol-5-Yl)Phenyl)Oxazole-5-Carboxamide], the EC50 was 840 nM and the Emax is 61%.

On to `CCC(CC)NC(=O)c1cnc(-c2cccc(-c3cc(C(=O)NCc4c(F)cccc4F)n[nH]3)c2)o1` [Example 3.34, 2-(3-(3-((2,6-Difluorobenzyl)Carbamoyl)-1 H-Pyrazol-5-Yl)Phenyl)-N-(Pentan-3-Yl)Oxazole-5-Carboxamide], for which the EC50 is 220 nM and the Emax was determined as 77%.

In the case of `CCC(CC)NC(=O)c1cnc(-c2cccc(-c3cc(C(=O)N[C@@H](C)C(C)(C)C)n[nH]3)c2)o1` [Example 3.35, (S)-2-(3-(3-((3,3-Dimethylbutan-2-Yl)Carbamoyl)-1H-Pyrazol-5-Yl)Phenyl)-N-(Pentan-3-Yl)Oxazole-5-Carboxamide Trifluoroacetate], the EC50 was 120 nM and the Emax turned out to be 69%.

Consider `CCC(CC)NC(=O)c1cnc(-c2cccc(-c3cc(C(=O)NC(COC)C(C)C)n[nH]3)c2)o1` (centres unmarked) [Example 3.36, 2-(3-(3-((1-Methoxy-3-Methylbutan-2-Yl)Carbamoyl)-1H-Pyrazol-5-Yl)Phenyl)-N-(Pentan-3-Yl)Oxazole-5-Carboxamide], for which the EC50 amounted to 190 nM and the Emax came out at 97%.

As for `CCC(CC)NC(=O)c1cnc(-c2cccc(-c3cc(C(=O)N[C@H](C)C(C)C)n[nH]3)c2)o1` [Example 3.37, (R)-2-(3-(3-((3-Methylbutan-2-Yl)Carbamoyl)-1H-Pyrazol-5-Yl)Phenyl)-N-(Pentan-3-Yl)Oxazole-5-Carboxamide], the EC50 worked out at 200 nM and the Emax worked out at 109%.

Consider `CCC(CC)NC(=O)c1cnc(-c2cccc(-c3cc(C(=O)N[C@@H](C)c4ccccc4)n[nH]3)c2)o1` [Example 3.38, (S)-N-(Pentan-3-Yl)-2-(3-(3-((1-Phenylethyl)Carbamoyl)-1H-Pyrazol-5-yl)Phenyl)Oxazole-5-Carboxamide], for which the EC50 came out at 150 nM and the Emax was determined as 100%.

On to `CCC(CC)NC(=O)c1cnc(-c2cccc(-c3cc(C(=O)NC(C)(C)CCc4ccccc4)n[nH]3)c2)o1` [Example 3.39, 2-(3-(3-((2-Methyl-4-Phenylbutan-2-Yl)Carbamoyl)-1H-Pyrazol-5-yl)Phenyl)-N-(Pentan-3-Yl)Oxazole-5-Carboxamide], for which the EC50 is 150 nM and the Emax was 98%.

On to `CCC(CC)NC(=O)c1cnc(-c2cccc(-c3cc(C(=O)NC4CCCCC4)n[nH]3)c2)o1` [Example 3.40, 2-(3-(3-(Cyclohexylcarbamoyl)-1 H-Pyrazol-5-Yl)Phenyl)-N-(Pentan-3-yl)Oxazole-5-Carboxamide], for which the concentration giving a half-maximal response (EC50) worked out at 70 nM and the Emax amounted to 96%.

Consider `CCC(CC)NC(=O)c1cnc(-c2cccc(-c3cc(C(=O)N[C@H](C(=O)OC)C(C)C)n[nH]3)c2)o1` [Example 3.41, (S)-Methyl 3-Methyl-2-(5-(3-(5-(Pentan-3-Ylcarbamoyl)Oxazol-2-Yl)Phenyl)-1H-Pyrazole-3-Carboxamido)Butanoate], for which the EC50 amounted to 130 nM and the Emax stood at 89%.

`CCC(CC)NC(=O)c1cnc(-c2cccc(-c3cc(C(=O)N[C@@H](C)C(=O)OC)n[nH]3)c2)o1` [Example 3.42, (S)-Methyl 2-(5-(3-(5-(Pentan-3-Ylcarbamoyl)Oxazol-2-Yl)Phenyl)-1H-Pyrazole-3-Carboxamido)Propanoate]: the EC50 is 690 nM and the Emax turned out to be 86%.

`CCC(CC)NC(=O)c1cnc(-c2cccc(-c3cc(C(=O)NC(C)(C)C)n[nH]3)c2)o1` [Example 3.43, 2-(3-(3-(Tert-Butylcarbamoyl)-1 H-Pyrazol-5-Yl)Phenyl)-N-(Pentan-3-yl)Oxazole-5-Carboxamide]: the EC50 was found to be 130 nM and the Emax was found to be 84%.

In the case of `CCC(CC)NC(=O)c1cnc(-c2cccc(-c3cc(C(=O)N[C@H](C)C4CCCCC4)n[nH]3)c2)o1` [Example 3.44, (R)-2-(3-(3-((1-Cyclohexylethyl)Carbamoyl)-1H-Pyrazol-5-Yl)Phenyl)-N-(Pentan-3-Yl)Oxazole-5-Carboxamide], the EC50 was 230 nM and the Emax was 82%.

As to `CCC(CC)NC(=O)c1cnc(-c2cccc(-c3cc(C(=O)NCc4ccc(F)cc4)n[nH]3)c2)o1` [Example 3.45, 2-(3-(3-((4-Fluorobenzyl)Carbamoyl)-1 H-Pyrazol-5-Yl)Phenyl)-N-(Pentan-3-yl)Oxazole-5-Carboxamide], the EC50 was 550 nM and the Emax was determined as 81%.

As for `CCC(CC)NC(=O)c1cnc(-c2cccc(-c3cc(C(=O)N[C@H](CCSC)C(=O)OC)n[nH]3)c2)o1` [Example 3.46, (R)-Methyl 4-(Methylthio)-2-(5-(3-(5-(Pentan-3-Ylcarbamoyl)Oxazol-2-yl)Phenyl)-1H-Pyrazole-3-Carboxamido)Butanoate], the EC50 was determined as 800 nM and the Emax amounted to 80%.

Take `CCC(CC)NC(=O)c1cnc(-c2cccc(-c3cc(C(=O)N4CCC(C)(OC)CC4)n[nH]3)c2)o1` [Example 3.47, 2-(3-(3-(4-Methoxy-4-Methylpiperidine-1-Carbonyl)-1H-Pyrazol-5-yl)Phenyl)-N-(Pentan-3-Yl)Oxazole-5-Carboxamide]: the EC50 stood at 940 nM and the Emax was 77%.

On to `CCC(CC)NC(=O)c1cnc(-c2cccc(-c3cc(C(=O)NC4CCCC4)n[nH]3)c2)o1` [Example 3.48, 2-(3-(3-(Cyclopentylcarbamoyl)-1 H-Pyrazol-5-Yl)Phenyl)-N-(Pentan-3-yl)Oxazole-5-Carboxamide], for which the EC50 stood at 120 nM and the Emax was 74%.

As to `CCC(CC)NC(=O)c1cnc(-c2cccc(-c3cc(C(=O)N[C@@H](C)C4CCCCC4)n[nH]3)c2)o1` [Example 3.49, (S)-2-(3-(3-((1-Cyclohexylethyl)Carbamoyl)-1H-Pyrazol-5-Yl)Phenyl)-N-(Pentan-3-Yl)Oxazole-5-Carboxamide], the EC50 was found to be 170 nM and the Emax was 72%.

Regarding `CCC(CC)NC(=O)c1cnc(-c2cccc(-c3cc(C(=O)N[C@@H](Cc4ccccc4)C(=O)OC)n[nH]3)c2)o1` [Example 3.50, (S)-Methyl 2-(5-(3-(5-(Pentan-3-Ylcarbamoyl)Oxazol-2-Yl)Phenyl)-1H-Pyrazole-3-Carboxamido)-3-Phenylpropanoate], the EC50 came out at 350 nM and the Emax worked out at 70%.

For `CCC(CC)NC(=O)c1cnc(-c2cccc(-c3cc(C(=O)N[C@H](C)c4ccccc4)n[nH]3)c2)o1` [Example 3.51, (R)-N-(Pentan-3-Yl)-2-(3-(3-((1-Phenylethyl)Carbamoyl)-1H-Pyrazol-5-Yl)Phenyl)Oxazole-5-Carboxamide], the EC50 worked out at 110 nM and the Emax came out at 68%.

Turning to `CCOC(=O)[C@@H](NC(=O)c1cc(-c2cccc(-c3ncc(C(=O)NC(CC)CC)o3)c2)[nH]n1)C(C)C` [Example 3.52, (S)-Ethyl 3-Methyl-2-(5-(3-(5-(Pentan-3-Ylcarbamoyl)Oxazol-2-Yl)Phenyl)-1 H-Pyrazole-3-Carboxamido)Butanoate], the EC50 came out at 30 nM and the Emax is 95%.

On to `CCC(CC)NC(=O)c1cnc(-c2cccc(-c3cc(C(=O)N[C@H](CC)[C@H]4CC[C@@H](C)O4)n[nH]3)c2)o1` [Example 3.53, 2-(3-(3-(((R)-1-((2R,5R)-5-Methyltetrahydrofuran-2-Yl)Propyl)Carbamoyl)-1 H-Pyrazol-5-Yl)Phenyl)-N-(Pentan-3-Yl)Oxazole-5-Carboxamide], for which the EC50 was 720 nM and the Emax worked out at 109%.

With `CCC(CC)NC(=O)c1cnc(-c2cccc(-c3cc(C(=O)NC(C)(C)c4ccccc4)n[nH]3)c2)o1` [Example 3.54, N-(Pentan-3-Yl)-2-(3-(3-((2-Phenylpropan-2-Yl)Carbamoyl)-1H-Pyrazol-5-Yl)Phenyl)Oxazole-5-Carboxamide], the EC50 was found to be 60 nM and the Emax came to 109%.
